# Experimental data published in EPA's ToxValDB 9.5 (doi:10.2903/j.efsa.2019.5732).
# How the values were obtained:
# Apis mellifera = conditions: acute, mortality
# Pontoscolex corethrurus = conditions: chronic/long-term; growth
# Canidae = conditions: chronic; duration: 1 years; oral; Dog Other; organ weight
# Bibionidae = conditions: chronic/long-term; duration: 28 days; seedling emergence
# Mus musculus = conditions: chronic; duration: 18 months; mortality
# Daphnia magna = conditions: chronic/long-term; duration: 21 days; reproduction
# Oryctolagus sp. = conditions: developmental; development
# Folsomia candida = conditions: chronic/long-term; mortality
compound,measurement,setting,value
CC(COc1ccc(Oc2ccccc2)cc1)Oc1ccccn1 (centres undefined) [Pyriproxyfen],LD50,Apis mellifera; dermal,> 100 µg/piece
same,LD50,"Apis mellifera; oral, unspecified",74 µg/piece
same,LD50,"Rattus norvegicus; acute, oral, mortality",> 5000 mg/kg-day
same,NOAEL,"Rattus norvegicus; reproduction developmental, organ weight",13.3 mg/kg-day
same,NOEC,Pontoscolex corethrurus,50 mg/kg
same,NOAEL,Canidae,10 mg/kg-day
same,LD50,"Anas platyrhynchos; acute, oral, unspecified, mortality",> 1910 mg/kg-day
same,NOEC,Anas platyrhynchos; chronic/long-term,70.2 mg/kg-day
same,LC50,"Anas platyrhynchos; short-term, oral, feed, mortality",> 1260 mg/kg-day
same,NOEC,Bibionidae,3.1 µg/L
same,LOAEL,Mus musculus,16.4 mg/kg-day
same,NOEC,Daphnia magna,0.015 µg/L
same,NOAEL,Oryctolagus sp.,100 mg/kg-day
same,NOEC,Folsomia candida,12.5 mg/kg
